Measured values published in patent US20070026478A1, “Hemiasterlin affinity probes and their uses” (WYETH, priority 2002, published 2007).
Counter-ions that a name gives are not always drawn. Like-named read-outs stand apart in the source and are kept apart here. Marks after values point to notes of the source that are not given here.

Key:
[1] = biological target: T1, tubulin (Bos taurus, UniProt P81947+Q6B856); test: Separation of polymerized and free tubulin by centrifugation; type: biochemical, bovine; settings: 50 μM drug, centrifugation at 10,000 g and 100,000 g
T1 construct: MAP-rich bovine brain tubulin (99% purity), Hela cell tubulin (90% purity); purchased Cytoskeleton (Denver, Colo.); host or cells: bovine brain
Method: Tubulin (5 μg) was incubated with 50 μM drug at room temperature for 25 minutes and then centrifuged at either 10,000 g for 15 minutes in a tabletop microfuge or at 100,000 g for 15 minutes in an airfuge. The supernatant was carefully removed to a fresh tube to obtain free tubulin and the pellet was solubilized in SDS-PAGE sample buffer.

[2] = biological target: T2, bovine MAP-rich tubulin (Bos taurus, UniProt P81947+Q6B856); test: Tubulin polymerization assay in a cell-free system; type: biochemical; settings: 0.3 μM compound
T2 construct: MAP-rich bovine brain tubulin (99% purity), Hela cell tubulin (90% purity); purchased Cytoskeleton (Denver, Colo.); host or cells: bovine brain
Method: In vitro tubulin polymerization assays were performed according to procedures that have been described elsewhere (Loganzo et al., Cancer Res. 2003, 63:1838-1845). Briefly, bovine MAP-rich tubulin (final concentration 1.5 mg/mL) was dissolved in cold PEM buffer containing 1 mM GTP (GPEM) and centrifuged at 12,000×g for 10 minutes at 4° C. The tubulin solution (100 μL/well) was added rapidly to wells of a low-volume, 96-well plate already containing duplicate aliquots (10 μL) of test compounds in GPEM. Final compound concentrations were 0.3 μM. Control wells contained the same final concentration of DMSO (0.3%). After initiation of the reaction, absorbance at 340 nm was measured every minute for 60 minutes at 24° C. using a SpectraMax Plus plate reader (Molecular Devices, Sunnyvale, Calif.). An increase in absorbance over time indicated an increase in turbidity resulting from tubulin polymerization.

[3] = biological target: T3, α-tubulin (Bos taurus, UniProt P81947+Q6B856); test: Subtilisin digestion of tubulin after incubation with various compounds; type: biochemical, bovine; settings: 50 μM drug, subtilisin up to 60 min at room temperature
T3 construct: MAP-rich bovine brain tubulin (99% purity), Hela cell tubulin (90% purity); purchased Cytoskeleton (Denver, Colo.); host or cells: bovine brain
Method: Tubulin (5 μg) was incubated with 50 μM drug at room temperature for 25 minutes and then digested under native conditions with subtilisin (0.05 μg) for 0, 5, 10, 15, 30 and 60 min at room temperature. Enzymatic digestion was stopped with 1 mM PMSF and samples were resolved by SDS-PAGE under conditions that allowed separation of α- and β-tubulin subunits. Gels were then fixed and stained with Coomassie blue.

[4] = biological target: T4, tubulin in whole KB-3-1 cells (Homo sapiens, UniProt P07437+P68363); test: Probe 1 photolabeling in whole KB-3-1 cells; type: cell-based; settings: 250 μM pre-incubation at 37° C. for 15 minutes
T4 construct: a cytosolic preparation of KB-3-1 cell lysates (50 μg) or KB-3-1 cells (40,000 cells) were used in the place of purified tubulin; endogenous in cells; host or cells: KB-3-1 cells (cytosolic supernatant at 100,000 x g, or whole cells)
Method: (§1) Alternatively, a cytosolic preparation of KB-3-1 cell lysates (50 μg) or KB-3-1 cells (40,000 cells) were used in the place of purified tubulin above. The supernatant of mechanically disrupted cells centrifuged at 100,000×g was used as a cytosolic preparation. K-3-1 cells were prepared by growing KB-3-1 cells in a 96-well plate and rinsing them with serum free medium. For experiments with whole cells, 250 μM HTI-286 was used as the competitor molecule during pre-incubation at 37° C. for 15 minutes.
Samples were irradiated at 360 nm with a Mineralight lamp (UVP, Upland, Calif.) for 30 minutes (for Probe 1), 2 hours (for whole cells with Probe 1), or 2 hours (for Probe 2) at 4° C., unless otherwise noted. Radiation of the benzophenone moiety at this wavelength effectively activates the photoprobe with minimal destruction of protein compared to the shorter wavelengths typically used for azido-containing photoprobes (see, Williams et al., Methods Enzymol. 1986, 126:667-682). If whole cells were used, Laemmli sample buffer was then added to lyse the cells.

[5] = biological target: T5, bovine brain tubulin (Bos taurus, UniProt P81947+Q6B856); test: Reversible binding affinity assay (tubulin fluorescence)
T5 construct: MAP-rich bovine brain tubulin (99% purity), Hela cell tubulin (90% purity); purchased Cytoskeleton (Denver, Colo.); host or cells: bovine brain
Method: The affinity of both HTI-286 and of non-radiolabled Probe 1 and Probe 2, to bovine brain tubulin was determined by previously published methods (Krishnamurthy et al., Biochem., submitted). Briefly, 5 mg/mL […] tubulin prepared in PEM buffer was pre-incubated with buffer or varying concentrations of test agents in individual quartz cuvettes. The intrinsic tryptophan fluorescence of tubulin (excitation at 560 nm and maximal emission at 580 nm) was measured after pre-incubation for 90 minutes. The change in fluorescence intensity at 580 nm in the presence of compound was fitted to a quadratic equation to obtain apparent dissociation constants (KD) of the test agents.

[6] = tested on: KB cells; test: Cell proliferation assay in tissue culture (SRB); type: cell-based; settings: Homo sapiens, KB, 72 h
Method: Cell proliferation studies were performed according to procedures described by Loganzo et al. (Cancer Res. 2003, 63:1838-1845). Briefly, KB cells were plated in 96-well plates in 100 μL media at densities pre-determined to produce 60-90% confluence at the time of analysis. Compounds, which were serially diluted into media as 2× stocks, were added to cells in duplicate. After 72 hours of incubation, cell survival was assayed by the SRB assay as described (Rabindran et al., C. Cancer Res. 1998, 58:5850-5858). IC50 values (i.e. the concentration of drug needed to inhibit cell growth by 50%) were used to evaluate drug potency.

[7] = biological target: T5, bovine brain tubulin; test: Competition of [3H]-Probe 1 photolabeling of tubulin; type: binding; settings: for inhibition of incorporation of radiolabeled Probe 1 into α-tubulin: 1 mM competitor, 37° C. incubation; for Probe 1 photolabeling of tubulin (% of no-competitor control): control (no competitor) = 100
Method: as §1, with “medium.” for “medium. For experiments with whole cells, 250 μM HTI-286 was used as the competitor molecule during pre-incubation at 37° C. for 15 minutes.”
If whole cells were used, Laemmli sample buffer was then added to lyse the cells.
Low grade SDS (Sigma, catalog No. L5750) was used in the running buffer, when needed, to allow separation of α and β-tubulin subunits. Gels were fixed, stained with Coomassie blue from BioRad (Hercules, Calif.) to ensure equal loading of protein, and sliced. […] Alternatively, gels were incubated with EN^3HANCE according to the manufacturer's instructions (Life Sciences Products, Inc.), washed, and dried prior to exposure of the gel to Biomax MX film from Kodak (Rochester, N.Y.) for fluorography.
After incubation for 30 minutes at 37° C., samples were irradiated with 360 nm UV light for 30 minutes and separated by SDS-PAGE. Gels were exposed to film using fluorographic techniques.
In particular, photolabeling experiments were performed as described in section 7.1.5 above, at both room temperature and at 37° C.

[8] = biological target: P-glycoprotein (Homo sapiens, UniProt P08183); settings: Loganzo et al., Cancer Res. 2003; cited from earlier work
[9] = biological target: T1, tubulin; test: Competition of [3H]-Probe 2 photolabeling of tubulin; type: binding, bovine; settings: 100 μM competitor, 2.5 μM tubulin, 0.25 μM [3H]-Probe 2, room temperature
Method: as §1, with “medium.” for “medium. For experiments with whole cells, 250 μM HTI-286 was used as the competitor molecule during pre-incubation at 37° C. for 15 minutes.”
Competition binding experiments were performed as described in Section 7.1.5. […] Samples were then irradiated for 2 hours at 4° C. and evaluated by SDS-PAGE and fluorography.

For `CN[C@H](C(=O)N[C@H](C(=O)N(C)[C@H](/C=C(\C)C(=O)O)C(C)C)C(C)(C)C)C(C)(C)c1ccccc1` [HTI-286, N,β,β-trimethyl-L-phenylalany-N^1[(1S,2E)-3-carboxy-1-isopropylbut-2-enyl]-N^1,3-dimethyl-L-valinamide trifluoroacetate], the “protein recovered in pellet fractions (tubulin aggregation)” value [1] was “no significant protein was recovered”, the inhibition at 0.3 µM [2] was 88% and the “tubulin polymerization (% inhibition)” value ([2]; 0.3 µM) was 87.5 ± 12.2 (n = 49) %. For the same compound, the “protection of α-tubulin from subtilisin cleavage” value [3] was “unable to cleave α-tubulin even after 60 minutes”, the “competition of radiolabeled Probe 1 labeling in whole cells” value [4] was “eliminates the specific labeling of the 50 kDa tubulin band” and the Kd ([5]; Table 1, binding to bovine brain tubulin, read-out: KD) was 400 to 800 nM. The Kd ([5]; rhodamine-labeled tubulin, 90 minutes pre-incubation, read-out: apparent binding constant (KD), fluorescence method) was 600 nM, the IC50 [6] was 0.96 nM and the “inhibition of incorporation of radiolabeled Probe 1 into α-tubulin” value ([7]; 0.25 μM radiolabeled Probe 1, 2.5 μM tubulin) was “completely inhibits”. The “inhibition of incorporation of radiolabeled Probe 1 into α-tubulin” value ([7]; 2.5 μM radiolabeled Probe 1, 2.5 μM tubulin) was “more than 50%”, the “reduction of Probe 1 photolabeling of tubulin” value ([7]; 37° C.) was “about 50%” and the “Probe 1 photolabeling of tubulin (% of no-competitor control)” value ([7]; 37° C., 100 μM competitor) was 47^† %. For the same compound, the “Probe 1 photolabeling of tubulin (% of no-competitor control)” value ([7]; Room Temp., 2.5 μM tubulin, 0.25 μM radiolabeled Probe 1, 100 μM competitor) was 27 ± 4%, the IC50 ([7]; room temperature, 2.5 μM tubulin, 0.25 μM radiolabeled Probe 1, read-out: IC50 for inhibition of Probe 1 photolabeling of tubulin) was 7000 nM and the “reduction of Probe 1 photolabeling of tubulin” value ([7]; room temperature, 400-fold molar excess (100 μM) competitor, 2.5 μM tubulin, 0.25 μM radiolabeled Probe 1) was “approximately 72%”. For the same compound, the “interaction with P-glycoprotein” value [8] was “weak interaction” and the “inhibition of Probe 2 labeling of tubulin” value [9] was 45%.
